Results: patent US20260209220A1, “SUBSTITUTED TETRAHYDROPYRROLO-PYRIDINONE COMPOUNDS AND THEIR USE IN TREATING MEDICAL CONDITIONS” (Karuna Therapeutics, Inc., priority 2022, published 2026)
pEC50: −log10 of the molar value.

Legend:
hM4 receptors = biological target: T1, hM4 receptors (Homo sapiens, UniProt P08173); assay: Human M4 PAM PERK assay (CHO cells, TR-FRET, with EC20 acetylcholine); type: cell-based
T1 construct: expressed in transfected cells; host or cells: CHO cells
T1 sequence (P08173 1-479): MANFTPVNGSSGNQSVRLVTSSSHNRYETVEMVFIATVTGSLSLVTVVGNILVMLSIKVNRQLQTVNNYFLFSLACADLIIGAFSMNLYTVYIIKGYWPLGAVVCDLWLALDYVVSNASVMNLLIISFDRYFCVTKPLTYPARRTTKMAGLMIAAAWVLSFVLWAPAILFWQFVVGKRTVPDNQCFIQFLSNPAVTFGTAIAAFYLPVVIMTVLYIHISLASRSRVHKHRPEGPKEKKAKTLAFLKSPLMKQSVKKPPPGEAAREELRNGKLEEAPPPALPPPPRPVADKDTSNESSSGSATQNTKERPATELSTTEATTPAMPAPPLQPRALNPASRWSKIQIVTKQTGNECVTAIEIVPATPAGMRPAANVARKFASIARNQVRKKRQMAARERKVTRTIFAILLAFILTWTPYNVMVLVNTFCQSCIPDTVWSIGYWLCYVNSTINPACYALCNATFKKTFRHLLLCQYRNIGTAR
Description: (§1) Chinese hamster ovary (CHO) cells expressing either hM4 or rM4 receptors were frozen in assay ready vials (5×10^6 cells/vial) after bulking-up in culture. The day before an assay, vial(s) were thawed and cells seeded in 384 well white proxiplates at 1000/well for hM4 cells and at 2000/well for rM4 cells, in 10 μL of growth media (Hams/F12 with glutamax and 10% FCS) and incubated overnight at 37° C./5% CO2.
(§2) On the following morning, the growth media was removed by ‘flicking out’ over a bin, patting the inverted plate onto tissue, and then replacing with 10 μL of wash media (Hams/F12 with glutamax and 8 mM HEPES, NB: serum free). Then, the wash media was removed in the same way and replaced with 8 μL/well of the serum free media. Plates were then re-incubated for a further 4 hours at 37° C./5% CO2.
(§3) Compounds for testing were solubilized to 10 mM in DMSO and compound addition plates, consisting of ten-point concentration response curves (CRC) in duplicate points (10 μM top concentration, ½ log dilution series), were prepared by acoustic dispensing and the compound management group.
(§4) After the 4-hour incubation in serum free media, a 4 μL aliquot of the 3×compound solution containing an EC20 of acetylcholine (10 nM final concentration) was added to the cell plate using a 384 well plate to plate transfer. Then, the plate lid was replaced, and the cells incubated for 5 mins at 37° C./5% CO2. Following this final incubation, all cellular processes were stopped by the addition of 4 μL/well of lysis and blocking buffer and plates were incubated for 30 minutes at RT on an orbital shaker (gentle setting). Then, a final addition of 4 μL/well of antibody detection mix, containing both the Europium-Cryptate (donor) and d2 (acceptor) tagged detection components, was added followed by a further 2-hour incubation at RT, and then the plate was read using a TR-FRET (time resolved fluorescence resonance energy transfer) based protocol.

rM4 receptors = biological target: T2, rM4 receptors (Rattus norvegicus, UniProt P08485); assay: Rat M4 PAM PERK assay (CHO cells, TR-FRET, with EC20 acetylcholine); type: cell-based
T2 construct: expressed in transfected cells; host or cells: CHO cells
T2 sequence (P08485 1-478): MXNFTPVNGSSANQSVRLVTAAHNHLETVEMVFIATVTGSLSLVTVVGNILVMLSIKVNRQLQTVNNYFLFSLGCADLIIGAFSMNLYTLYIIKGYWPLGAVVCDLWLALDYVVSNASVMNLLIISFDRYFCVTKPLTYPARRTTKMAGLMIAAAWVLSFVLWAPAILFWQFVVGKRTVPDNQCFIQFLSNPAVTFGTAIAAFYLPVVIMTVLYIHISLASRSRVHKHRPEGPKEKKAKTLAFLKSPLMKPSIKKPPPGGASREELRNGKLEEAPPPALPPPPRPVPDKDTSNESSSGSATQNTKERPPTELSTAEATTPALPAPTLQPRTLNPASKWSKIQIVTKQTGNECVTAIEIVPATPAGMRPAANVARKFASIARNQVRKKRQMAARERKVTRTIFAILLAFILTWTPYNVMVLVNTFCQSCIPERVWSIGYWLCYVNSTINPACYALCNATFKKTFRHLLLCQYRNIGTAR
Description: as §1, §2, §3, §4

human M4 receptor = biological target: T3, human M4 receptor (Homo sapiens, UniProt P08173); assay: M4 GTPγS PAM assay (CHO-K1 membranes, 35S-GTP binding, with EC20 acetylcholine); type: biochemical; details: with EC20 acetylcholine (40 nM)
T3 construct: expressed in transfected cells; host or cells: CHO-K1 cells (membranes)
T3 sequence (P08173 1-479): T1 sequence (P08173 1-479)
Description: The M4 GTPγS PAM method was used. Membranes were prepared for GTPgS binding assays from CHO-K1 cells stably expressing human M4 receptor. Briefly, cells were grown in 5-layer cell culture flasks. Cells were washed with 50 mL of PBS and then dissociated with 0.05% trypsin. Dissociated cells were then collected by centrifugation at 650×g for 8 minutes at 4° C. Pellets were washed again in PBS by centrifugation and resuspended in 30 mL of 20 mM HEPES, 10 mM EDTA, pH 7.4. After sitting on ice for 30 min, membranes were collected by centrifugation at 50000×g for 15′ at 4° C., resuspended in 30 mL of 20 mM HEPES, 0.1 mM EDTA, pH 7.4 and collected again by centrifugation. Pellets were then washed twice by centrifugation in 30 mL of 20 mM HEPES, pH 7.4, and stored at −80° C. until the day of the assay. On the day of the assay, pellets were thawed on ice and resuspended in 1 mL of 20 mM HEPES, pH 7.4, 10 mM MgCl2, 100 mM NaCl using dounce homogenization. Membrane protein concentration is determined by BCA protein assay (Promega, Madison, WI) according to Promega guidelines.
On the day of the assay, serial dilutions of test PAM compounds were brought up in assay buffer (20 mM HEPES, 10 mM MgCl2, 100 mM NaCl) at 4X final assay concentration. […] of membrane homogenates (containing […] of membrane protein) were prepared in assay buffer supplemented with GDP at […] final assay concentration (final assay concentration of GDP is 5 μM for M2 and 0.1 μM for M4) and dispensed into 96 well polypropylene, U-bottom Greiner plates. 25 ml of vehicle or test PAM compound at 4× of final assay concentration diluted in the assay buffer were added to membrane and plates are incubated for 10-15 minutes at room temperature with gentle shaking. Then, […] of EC20 acetylcholine in assay buffer at 4× final assay concentration was added to assay plates (EC20 final assay concentrations was 40 nM for human M4).
Plates were then incubated, with shaking, for an additional 10-15 minutes. […] of 0.4 nM 35S-GTP (Perkin Elmer, Waltham, MA) in assay buffer was added to assay mixtures. The binding reaction is left on the shaker for 1 hour at room temperature. Membranes in assay reactions were then transferred to GF/C filter plates (Unifilter, Perkin Elmer) and washed three times using a FilterMate Harvester (Perkin Elmer) with cold assay buffer containing no GDP. Filter plates were then dried at 40° C. overnight followed by the addition of […] of Beta Plate Scintillation liquid. Plates are top and bottom sealed before being read on TopCount scintillation counter (Perkin Elmer, Waltham, MA).

| SMILES | pEC50 (hM4 receptors) | pEC50 (rM4 receptors) | pEC50 (human M4 receptor) |
| --- | --- | --- | --- |
| Cc1cc(=O)n(C)c2c1CN(C(=O)CC1CN(c3cccc(C(F)(F)F)c3)C1)C2 [Compound I-13] | 6.00 to 6.70 | 6.00 to 6.70 | 6.70 to 7.30 |
| Cc1cc(=O)n(C)c2c1CN(C(=O)CC1CN(c3cnn(C(F)(F)F)c3)C1)C2 [Compound I-34] | < 6.00 | < 6.00 | < 6.00 |
| Cc1cc(=O)n(C)c2c1[C@H](C)N(C(=O)CC1CN(c3ccc(C(F)(F)F)cc3)C1)C2 [Compound I-116, (S)-1,4,5-trimethyl-6-(2-(1-(4-(trifluoromethyl)phenyl)azetidin-3-yl)acetyl)-1,5,6,7-tetrahydro-2H-pyrrolo[3,4-b]pyridin-2-one] | < 6.00 | < 6.00 | < 6.00 |
| Cc1cc(=O)n(CC2CC2)c2c1CN(C(=O)CC1CN(c3ccc(C(F)(F)F)cc3)C1)C2 [Compound I-102] | 6.00 to 6.70 | 6.00 to 6.70 | 6.70 to 7.30 |
| Cc1cc(=O)n(C)c2c1CN(C(=O)CC1CN(c3nc(C4CC4)ns3)C1)C2 [Compound I-35] | 6.70 to 7.30 | 6.70 to 7.30 | 6.70 to 7.30 |
| Cc1cc(=O)n(C)c2c1CN(C(=O)CC1CN(c3ccc(C(F)(F)F)cn3)C1)C2 [Compound I-8] | 6.00 to 6.70 | < 6.00 | < 6.00 |
| COc1c2c(n(C)c(=O)c1C)CN(C(=O)CC1CN(c3ccc(C(F)(F)F)cc3)C1)C2 [Compound I-100] | 6.70 to 7.30 | 6.00 to 6.70 | > 7.30 |
| Cc1c2c(n(C)c(=O)c1C)CN(C(=O)CC1CN(c3nc(C4CC4)c(C(F)(F)F)s3)C1)C2 [Compound I-65, 6-(2-(1-(4-cyclopropyl-5-(trifluoromethyl)thiazol-2-yl)azetidin-3-yl)acetyl)-1,3,4-trimethyl-1,5,6,7-tetrahydro-2H-pyrrolo[3,4-b]pyridin-2-one] | 6.00 to 6.70 | 6.00 to 6.70 | > 7.30 |
| Cc1cc(=O)n(C)c2c1CN(C(=O)CC1CN(c3ccc(F)c(C(F)(F)F)c3)C1)C2 [Compound I-20] | 6.70 to 7.30 | 6.70 to 7.30 | 6.00 to 6.70 |
| Cc1cc(=O)n(C)c2c1CN(C(=O)CC1CN(c3ccc(F)cc3)C1)C2 [Compound I-11] | 6.00 to 6.70 | 6.00 to 6.70 | 6.00 to 6.70 |
| Cc1cc(=O)n(C)c2c1CN(C(=O)CC1CN(c3ccnc(C4CC4)n3)C1)C2 [Compound I-24] | 6.70 to 7.30 | 6.00 to 6.70 | 6.70 to 7.30 |
| Cc1cc(=O)n(C)c2c1CN(C(=O)CC1CN(c3ncns3)C1)C2 [Compound I-18] | 6.00 to 6.70 | < 6.00 | 6.00 to 6.70 |
| Cc1cc(=O)n(C)c2c1CN(C(=O)CC1CN(c3cccc(C#N)c3)C1)C2 [Compound I-25] | 6.70 to 7.30 | 6.00 to 6.70 | 6.00 to 6.70 |
| Cc1cc(=O)n(C)c2c1CN(C(=O)CC1CN(c3cccc(F)c3C)C1)C2 [Compound I-33] | 6.70 to 7.30 | 6.00 to 6.70 | 6.00 to 6.70 |
| Cc1c2c(n(C)c(=O)c1C)CN(C(=O)CC1CN(c3ccc(C4CC4)c(F)c3)C1C)C2 (single isomer, unassigned) [Compound I-62] | 6.00 to 6.70 | 6.00 to 6.70 | 6.00 to 6.70 |
| Cc1cc(=O)n(C)c2c1CN(C(=O)CC1CN(c3ncc(C(F)(F)F)s3)C1)C2 [Compound I-29] | 6.70 to 7.30 | 6.00 to 6.70 | 6.70 to 7.30 |

Further lines, results first:

| pEC50 (hM4 receptors) | pEC50 (rM4 receptors) | pEC50 (human M4 receptor) | SMILES |
| --- | --- | --- | --- |
| > 7.30 | 6.70 to 7.30 | > 7.30 | Cc1c2c(n(C)c(=O)c1Cl)CN(C(=O)CC1CN(c3ccnc(C(F)(F)F)c3)C1)C2 [Compound I-66, 3-Chloro-1,4-dimethyl-6-(2-(1-(2-(trifluoromethyl)pyridin-4-yl)azetidin-3-yl)acetyl)-1,5,6,7-tetrahydro-2H-pyrrolo[3,4-b]pyridin-2-one] |
| > 7.30 | 6.00 to 6.70 | 6.70 to 7.30 | Cc1c2c(n(C)c(=O)c1C)CN(C(=O)CC1CN(c3ncns3)C1)C2 [Compound I-44] |
| > 7.30 | 6.70 to 7.30 | 6.70 to 7.30 | Cc1cc(=O)n(C)c2c1CN(C(=O)CC1CN(c3ccc(C#N)cc3)C1)C2 [Compound I-17] |
| 6.70 to 7.30 | 6.70 to 7.30 | 6.70 to 7.30 | Cc1c2c(n(C)c(=O)c1C)CN(C(=O)CC1CN(c3cnc(C4CC4)cn3)C1)C2 [Compound I-58] |
| > 7.30 | > 7.30 | > 7.30 | Cc1c2c(n(C)c(=O)c1C)CN(C(=O)CC1CN(c3ccc(C4CC4)c(F)c3)C1C)C2 (single isomer, unassigned) [Compound I-61] |
| 6.70 to 7.30 | 6.70 to 7.30 | 6.00 to 6.70 | Cc1cc(=O)n(C)c2c1CN(C(=O)CC1CN(c3cnnc(C(F)(F)F)c3)C1)C2 [Compound I-30] |
| > 7.30 | 6.00 to 6.70 | 6.70 to 7.30 | Cc1cc(=O)n(C)c2c1CN(C(=O)CC1CN(c3ccnc(OCC4CC4)c3)C1)C2 [Compound I-10] |
| > 7.30 | 6.70 to 7.30 | > 7.30 | Cc1c2c(n(C)c(=O)c1C)CN(C(=O)CC1CN(c3ccc(C#N)cc3)C1)C2 [Compound I-45] |
| > 7.30 | 6.70 to 7.30 | 6.70 to 7.30 | Cc1c2c(n(C)c(=O)c1Cl)CN(C(=O)CC1CN(c3ccc(C(F)(F)F)nc3)C1)C2 [Compound I-78] |
| > 7.30 | > 7.30 | > 7.30 | Cc1c2c(n(C)c(=O)c1Cl)CN(C(=O)CC1CN(c3ccc(C(F)(F)F)cc3)C1)C2 [Compound I-68] |
